# Test results from ChEMBL document CHEMBL5726107, “Histone demethylase inhibitors” (2017).
# What was measured:
# [1] = target: Lysine-specific demethylase 5A (Homo sapiens, UniProt P29375); assay: Enzymatic Assay: The enzymatic assay of Jarid1A activity is based upon Time Resolved-Fluorescence Resonance Energy Transfer (TR-FRET) detection. […] The reaction mixture was incubated at room temperature for 30 minutes, and terminated by the addition of 6 μl of 5 mM EDTA in LANCE detection buffer containing 50 nM Phycolink Streptavidin-allophycocyanin and 2 nM Europium-anti-H3K4me1-2 antibody.
# Chain of Lysine-specific demethylase 5A (P29375 whole entry): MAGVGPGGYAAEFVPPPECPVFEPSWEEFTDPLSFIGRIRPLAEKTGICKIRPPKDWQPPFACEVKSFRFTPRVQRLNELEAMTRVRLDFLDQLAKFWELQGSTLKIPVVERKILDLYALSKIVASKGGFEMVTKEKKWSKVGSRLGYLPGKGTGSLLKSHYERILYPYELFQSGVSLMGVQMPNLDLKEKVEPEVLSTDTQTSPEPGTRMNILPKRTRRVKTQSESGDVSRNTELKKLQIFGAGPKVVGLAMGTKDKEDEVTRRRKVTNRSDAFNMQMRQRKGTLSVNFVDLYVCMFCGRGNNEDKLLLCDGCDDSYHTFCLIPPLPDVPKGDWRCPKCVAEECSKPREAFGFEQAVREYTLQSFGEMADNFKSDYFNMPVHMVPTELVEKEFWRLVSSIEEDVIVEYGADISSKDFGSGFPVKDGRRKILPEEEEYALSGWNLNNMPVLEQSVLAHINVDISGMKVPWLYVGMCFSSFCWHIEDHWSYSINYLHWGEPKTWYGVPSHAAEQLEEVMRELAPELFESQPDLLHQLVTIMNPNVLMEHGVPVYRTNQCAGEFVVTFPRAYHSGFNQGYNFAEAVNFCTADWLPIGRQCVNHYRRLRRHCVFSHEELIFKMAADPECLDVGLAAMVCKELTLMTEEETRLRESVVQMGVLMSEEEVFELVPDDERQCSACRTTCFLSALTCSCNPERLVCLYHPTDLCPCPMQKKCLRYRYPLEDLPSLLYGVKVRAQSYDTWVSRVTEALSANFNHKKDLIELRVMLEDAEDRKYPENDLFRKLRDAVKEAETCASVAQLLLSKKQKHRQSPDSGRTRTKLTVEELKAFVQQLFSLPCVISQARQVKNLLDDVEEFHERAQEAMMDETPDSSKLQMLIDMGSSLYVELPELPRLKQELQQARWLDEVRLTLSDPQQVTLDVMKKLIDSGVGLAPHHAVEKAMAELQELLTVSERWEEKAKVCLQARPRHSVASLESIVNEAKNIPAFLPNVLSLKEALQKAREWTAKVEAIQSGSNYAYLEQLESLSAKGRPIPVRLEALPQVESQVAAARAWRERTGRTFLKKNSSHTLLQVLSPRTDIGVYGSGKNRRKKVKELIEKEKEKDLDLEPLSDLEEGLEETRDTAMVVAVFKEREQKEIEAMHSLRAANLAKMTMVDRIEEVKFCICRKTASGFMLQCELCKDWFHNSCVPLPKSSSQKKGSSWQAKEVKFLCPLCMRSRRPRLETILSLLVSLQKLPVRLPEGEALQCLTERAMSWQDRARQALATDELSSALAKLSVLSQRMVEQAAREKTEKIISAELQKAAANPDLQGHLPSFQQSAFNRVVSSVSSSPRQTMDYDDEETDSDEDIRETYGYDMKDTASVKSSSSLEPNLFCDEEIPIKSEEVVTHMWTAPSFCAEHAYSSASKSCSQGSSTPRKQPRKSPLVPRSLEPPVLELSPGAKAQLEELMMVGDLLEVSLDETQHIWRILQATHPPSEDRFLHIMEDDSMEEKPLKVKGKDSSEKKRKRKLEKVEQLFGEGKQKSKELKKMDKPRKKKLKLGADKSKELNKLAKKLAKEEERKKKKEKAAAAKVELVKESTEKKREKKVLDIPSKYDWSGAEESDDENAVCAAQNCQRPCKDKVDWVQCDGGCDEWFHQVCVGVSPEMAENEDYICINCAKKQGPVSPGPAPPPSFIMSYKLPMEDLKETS
# [2] = target: Lysine-specific demethylase 5B (Homo sapiens, UniProt Q9UGL1); assay: The reaction mixture was incubated at room temperature for 30 minutes, and terminated by the addition of 6 μl of 5 mM EDTA in LANCE detection buffer containing 50 nM Phycolink Streptavidin-allophycocyanin and 2 nM Europium-anti-H3K4me1-2 antibody.
# Chain of Lysine-specific demethylase 5B (Q9UGL1 whole entry): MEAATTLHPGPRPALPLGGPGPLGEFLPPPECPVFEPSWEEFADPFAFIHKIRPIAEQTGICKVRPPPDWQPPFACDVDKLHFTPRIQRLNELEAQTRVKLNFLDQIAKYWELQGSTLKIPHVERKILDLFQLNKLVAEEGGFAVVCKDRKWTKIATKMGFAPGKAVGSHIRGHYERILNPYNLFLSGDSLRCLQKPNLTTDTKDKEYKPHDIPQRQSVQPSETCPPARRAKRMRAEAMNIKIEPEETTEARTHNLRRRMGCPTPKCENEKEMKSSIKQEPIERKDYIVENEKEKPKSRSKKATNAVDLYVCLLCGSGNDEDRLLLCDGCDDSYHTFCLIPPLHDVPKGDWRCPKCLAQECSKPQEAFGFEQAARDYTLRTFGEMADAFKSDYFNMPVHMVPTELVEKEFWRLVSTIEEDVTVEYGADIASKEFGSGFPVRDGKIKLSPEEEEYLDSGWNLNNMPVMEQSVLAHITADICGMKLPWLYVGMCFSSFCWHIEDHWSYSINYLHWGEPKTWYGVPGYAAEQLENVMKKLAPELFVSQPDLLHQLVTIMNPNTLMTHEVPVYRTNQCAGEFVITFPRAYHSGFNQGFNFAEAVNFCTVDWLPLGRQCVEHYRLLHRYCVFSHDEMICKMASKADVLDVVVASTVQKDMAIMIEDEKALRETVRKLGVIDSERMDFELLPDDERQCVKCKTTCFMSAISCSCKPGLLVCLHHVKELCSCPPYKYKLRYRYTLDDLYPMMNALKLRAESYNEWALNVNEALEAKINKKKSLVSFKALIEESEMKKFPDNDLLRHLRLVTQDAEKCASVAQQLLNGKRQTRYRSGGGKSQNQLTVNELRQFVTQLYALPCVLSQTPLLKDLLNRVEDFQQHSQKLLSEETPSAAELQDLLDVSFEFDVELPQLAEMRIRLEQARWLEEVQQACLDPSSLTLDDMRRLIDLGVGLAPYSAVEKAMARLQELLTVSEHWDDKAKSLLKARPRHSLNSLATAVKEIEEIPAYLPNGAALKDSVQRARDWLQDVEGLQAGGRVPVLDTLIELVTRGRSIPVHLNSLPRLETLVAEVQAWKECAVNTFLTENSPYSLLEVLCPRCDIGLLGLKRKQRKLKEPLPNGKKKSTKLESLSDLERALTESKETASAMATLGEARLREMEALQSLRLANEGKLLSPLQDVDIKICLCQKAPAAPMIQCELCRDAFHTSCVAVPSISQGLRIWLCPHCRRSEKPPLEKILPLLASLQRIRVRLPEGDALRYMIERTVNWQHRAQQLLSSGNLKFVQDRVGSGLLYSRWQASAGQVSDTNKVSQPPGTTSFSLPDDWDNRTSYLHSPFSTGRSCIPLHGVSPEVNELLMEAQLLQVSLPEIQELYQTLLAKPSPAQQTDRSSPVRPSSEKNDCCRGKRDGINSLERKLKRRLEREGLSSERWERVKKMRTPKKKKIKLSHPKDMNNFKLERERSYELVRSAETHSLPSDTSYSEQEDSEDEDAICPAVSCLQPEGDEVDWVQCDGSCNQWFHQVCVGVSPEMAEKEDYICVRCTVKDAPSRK
smiles,measurement,setting,value
CCCn1nc(Nc2cnccc2C(=O)O)c2cccc(C)c21,IC50,[1],< 100 nM
same,IC50,[2],< 100 nM
